{
  "source": "the NIST ThermoML archive (doi:10.1016/j.jct.2007.10.004)",
  "key": {"[1]": {"conditions": "Crystal"}, "[2]": {"assay": "Molar enthalpy of transition or fusion", "conditions": "Crystal; DSC"}, "[3]": {"assay": "Solid-liquid equilibrium temperature", "conditions": "Crystal"}},
  "note": "± gives the expanded uncertainty stated by the source.",
  "data": [
    {"smiles": "CC(=O)OCCC1CCCCC1", "note": "[cyclohexylethyl acetate]", "values": [
      {"measurement": "Normal melting temperature", "setting": "[1]; DTA", "result": "-51.70 ± 0.39", "unit": "°C"}
    ]},
    {"smiles": "CC(=O)OC1CCCCC1", "note": "[cyclohexyl ethanoate]", "values": [
      {"measurement": "Molar enthalpy of transition or fusion", "setting": "[2]", "result": "0.809 ± 0.0406", "unit": "kcal/mol"},
      {"measurement": "Normal melting temperature", "setting": "[1]; DTA", "result": "-51.70 ± 0.4", "unit": "°C"}
    ]},
    {"smiles": "CCCCCCCCO", "note": "[octan-1-ol]", "values": [
      {"measurement": "Normal melting temperature", "setting": "[1]", "result": "-14.60 ± 0.62", "unit": "°C"},
      {"measurement": "Solid-liquid equilibrium temperature", "setting": "[3]; 216000 kPa, Closed cell (Static) method", "result": "303.15 ± 1.7", "unit": "K"},
      {"measurement": "Solid-liquid equilibrium temperature", "setting": "[3]; 268000 kPa, Closed cell (Static) method", "result": "313.15 ± 1.9", "unit": "K"},
      {"measurement": "Solid-liquid equilibrium temperature", "setting": "[3]; 329000 kPa, Closed cell (Static) method", "result": "323.15 ± 2", "unit": "K"},
      {"measurement": "Solid-liquid equilibrium temperature", "setting": "[3]; 400000 kPa, Closed cell (Static) method", "result": "333.15 ± 2.2", "unit": "K"},
      {"measurement": "Solid-liquid equilibrium temperature", "setting": "[3]; 480000 kPa, Closed cell (Static) method", "result": "343.15 ± 2.3", "unit": "K"},
      {"measurement": "Solid-liquid equilibrium temperature", "setting": "[3]; 569000 kPa, Closed cell (Static) method", "result": "353.15 ± 2.6", "unit": "K"}
    ]},
    {"smiles": "O=C(O)C1CCCCC1", "note": "[cyclohexanecarboxylic acid]", "values": [
      {"measurement": "Molar enthalpy of transition or fusion", "setting": "[2]", "result": "2.2 ± 0.0645", "unit": "kcal/mol"},
      {"measurement": "Normal melting temperature", "setting": "[1]; DTA", "result": "29.8 ± 0.5", "unit": "°C"},
      {"measurement": "Solid-liquid equilibrium temperature", "setting": "[3]; 800 kPa, visual observation", "result": "303.15 ± 0.26", "unit": "K"},
      {"measurement": "Solid-liquid equilibrium temperature", "setting": "[3]; 31000 kPa, visual observation", "result": "313.15 ± 0.52", "unit": "K"},
      {"measurement": "Solid-liquid equilibrium temperature", "setting": "[3]; 63000 kPa, visual observation", "result": "323.15 ± 0.9", "unit": "K"},
      {"measurement": "Solid-liquid equilibrium temperature", "setting": "[3]; 92000 kPa, visual observation", "result": "333.15 ± 1.3", "unit": "K"},
      {"measurement": "Solid-liquid equilibrium temperature", "setting": "[3]; 121000 kPa, visual observation", "result": "343.15 ± 1.7", "unit": "K"},
      {"measurement": "Solid-liquid equilibrium temperature", "setting": "[3]; 150000 kPa, visual observation", "result": "353.15 ± 2.1", "unit": "K"}
    ]},
    {"smiles": "O=C(O)CC1CCCCC1", "note": "[cyclohexylethanoic acid]", "values": [
      {"measurement": "Molar enthalpy of transition or fusion", "setting": "[2]", "result": "3.3 ± 0.086", "unit": "kcal/mol"},
      {"measurement": "Normal melting temperature", "setting": "[1]; DTA", "result": "28.8 ± 0.4", "unit": "°C"}
    ]}
  ]
}
